Assay results: ChEMBL document CHEMBL1201862, “PubChem BioAssay data set” (2004)
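Results reflect a 48-hour exposure of cells in 96-well plates to compound at five concentrations. GI50 is the concentration that inhibits growth by half.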 Calls of active or inactive are those of the source. No stated cut-off is given here; in the data, active = GI50 up to about 1.1 µM and inactive = higher.

Experiments:
Test in all cases: NCI tumour cell line growth inhibition, 48 h
A498 = system: A498
CAKI-1 = system: CAKI-1
DMS-114 = system: DMS-114
EKVX = system: EKVX
HCC 2998 = system: HCC 2998
HT-29 = system: HT-29
NCI-H226 = system: NCI-H226
NCI-H460 = system: NCI-H460
OVCAR-8 = system: OVCAR-8
RXF 393 = system: RXF 393
SF-268 = system: SF-268
SK-MEL-28 = system: SK-MEL-28
SK-OV-3 = system: SK-OV-3
SN12C = system: SN12C
SNB-75 = system: SNB-75
SW-620 = system: SW-620
TK-10 = system: TK-10
U-251 = system: U-251

Measured: GI50

CCSC1(SCC)CCN(/C=N/C(C)(C)C)C1
inactive: A498 > 100 µM | CAKI-1 > 100 µM | DMS-114 44.7 µM | EKVX > 100 µM | HCC 2998 > 100 µM | HT-29 > 100 µM | NCI-H226 > 100 µM | NCI-H460 > 100 µM | OVCAR-8 > 100 µM | RXF 393 67.8 µM | SF-268 > 100 µM | SK-MEL-28 > 100 µM | SK-OV-3 > 100 µM | SN12C > 100 µM | SNB-75 > 100 µM | SW-620 19.5 µM | TK-10 > 100 µM | U-251 > 100 µM

CCCC12Cc3c(OC)ccc(OC)c3CC(Cc3c(OC)ccc(OC)c31)C2=O (configuration not stated)
inactive: A498 > 100 µM | CAKI-1 9.64 µM | DMS-114 34.8 µM | EKVX > 100 µM | HCC 2998 > 100 µM | HT-29 > 100 µM | NCI-H226 24.8 µM | NCI-H460 > 100 µM | OVCAR-8 > 100 µM | RXF 393 > 100 µM | SF-268 > 100 µM | SK-MEL-28 > 100 µM | SK-OV-3 > 100 µM | SN12C > 100 µM | SNB-75 > 100 µM | SW-620 > 100 µM | TK-10 > 100 µM | U-251 > 100 µM

CC(C)CC(=O)NS(=O)(=O)c1ccccc1
inactive: A498 > 100 µM | CAKI-1 > 100 µM | DMS-114 > 100 µM | EKVX > 100 µM | HCC 2998 > 100 µM | HT-29 > 100 µM | NCI-H226 > 100 µM | NCI-H460 > 100 µM | OVCAR-8 > 100 µM | RXF 393 > 100 µM | SF-268 > 100 µM | SK-MEL-28 > 100 µM | SK-OV-3 > 100 µM | SN12C > 100 µM | SNB-75 > 100 µM | SW-620 > 100 µM | TK-10 > 100 µM | U-251 > 100 µM

CC(C)(C)C1=CC(=N/N=c2\scc(-c3ccccc3)n2-c2ccccc2)C=C(C(C)(C)C)C1=O
inactive: A498 > 100 µM | CAKI-1 > 100 µM | DMS-114 > 100 µM | EKVX > 100 µM | HCC 2998 > 100 µM | HT-29 > 100 µM | NCI-H226 > 100 µM | NCI-H460 > 100 µM | OVCAR-8 > 100 µM | RXF 393 > 100 µM | SF-268 > 100 µM | SK-MEL-28 > 100 µM | SK-OV-3 > 100 µM | SN12C > 100 µM | SNB-75 > 100 µM | SW-620 86.5 µM | TK-10 > 100 µM | U-251 > 100 µM
